Earlier results, collected in PMC3433420 (PLoS ONE, 2012).
Where two headings read alike, the source gives them in different places.

Biological target: SH2 and PTB domains
Conditions: cited from earlier work
Text: Supplement pone.0044471.s022.xlsx, sheet "Most recent PM interactions" | column: Kd || Supplement pone.0044471.s022.xlsx, sheet "All original PM interactions" | column: Kd

[1] = protein ABL2, ref Jones et al. 2006 / Kaushansky et al. Mol Biosys 2008 / Kaushansky et al. Chem and Biol 2008
[2] = protein BLK, ref Jones et al. 2006 / Kaushansky et al. Mol Biosys 2008 / Kaushansky et al. Chem and Biol 2008
[3] = protein GRB10, ref Jones et al. 2006 / Kaushansky et al. Mol Biosys 2008 / Kaushansky et al. Chem and Biol 2008
[4] = protein ITK, ref Jones et al. 2006 / Kaushansky et al. Mol Biosys 2008 / Kaushansky et al. Chem and Biol 2008
[5] = protein PIK3R1-NC, ref Jones et al. 2006 / Kaushansky et al. Mol Biosys 2008 / Kaushansky et al. Chem and Biol 2008
[6] = protein PIK3R3-NC, ref Jones et al. 2006 / Kaushansky et al. Mol Biosys 2008 / Kaushansky et al. Chem and Biol 2008
[7] = protein RASA1-N, ref Jones et al. 2006 / Kaushansky et al. Mol Biosys 2008 / Kaushansky et al. Chem and Biol 2008
[8] = protein RASA1-NC, ref Jones et al. 2006 / Kaushansky et al. Mol Biosys 2008 / Kaushansky et al. Chem and Biol 2008
[9] = protein SH2B3, ref Jones et al. 2006 / Kaushansky et al. Mol Biosys 2008 / Kaushansky et al. Chem and Biol 2008
[10] = protein SH2B, ref Jones et al. 2006 / Kaushansky et al. Mol Biosys 2008 / Kaushansky et al. Chem and Biol 2008
[11] = protein SH2D3C, ref Jones et al. 2006 / Kaushansky et al. Mol Biosys 2008 / Kaushansky et al. Chem and Biol 2008
[12] = protein SHC1-PTB, ref Jones et al. 2006 / Kaushansky et al. Mol Biosys 2008 / Kaushansky et al. Chem and Biol 2008
[13] = protein SHC2-PTB, ref Jones et al. 2006 / Kaushansky et al. Mol Biosys 2008 / Kaushansky et al. Chem and Biol 2008
[14] = protein SLA, ref Jones et al. 2006 / Kaushansky et al. Mol Biosys 2008 / Kaushansky et al. Chem and Biol 2008
[15] = protein SRC, ref Jones et al. 2006 / Kaushansky et al. Mol Biosys 2008 / Kaushansky et al. Chem and Biol 2008
[16] = protein SYK-NC, ref Jones et al. 2006 / Kaushansky et al. Mol Biosys 2008 / Kaushansky et al. Chem and Biol 2008
[17] = protein TNS4, ref Jones et al. 2006 / Kaushansky et al. Mol Biosys 2008 / Kaushansky et al. Chem and Biol 2008
[18] = protein YES1, ref Jones et al. 2006 / Kaushansky et al. Mol Biosys 2008 / Kaushansky et al. Chem and Biol 2008
[19] = protein ABL2, ref Jones et al. 2006 / Kaushansky et al. Chem and Biol 2008
[20] = protein SHC1-PTB, ref Jones et al. 2006 / Kaushansky et al. Chem and Biol 2008

For “DNPDpYQQDFFPKd [ErbB1 pY1172, N-terminally rhodamine-labeled 13-mer phosphopeptide]”, the Kd [1] is given as 0.49 µM, the Kd (protein BCAR3, ref Jones et al. 2006 / Kaushansky et al. Mol Biosys 2008 / Kaushansky et al. Chem and Biol 2008) is given as 0.3 µM and the Kd [2] is given as 0.75 µM. For the same substance, the Kd (protein CRK, ref Jones et al. 2006 / Kaushansky et al. Mol Biosys 2008 / Kaushansky et al. Chem and Biol 2008) was 0.41 µM, the Kd (protein FGR, ref Jones et al. 2006 / Kaushansky et al. Mol Biosys 2008 / Kaushansky et al. Chem and Biol 2008) was 0.55 µM and the Kd [3] was 1.29 µM. For the same substance, the Kd (protein GRB14, ref Jones et al. 2006 / Kaushansky et al. Mol Biosys 2008 / Kaushansky et al. Chem and Biol 2008) was 1.25 µM, the Kd [4] was 1.41 µM and the Kd (protein LYN, ref Jones et al. 2006 / Kaushansky et al. Mol Biosys 2008 / Kaushansky et al. Chem and Biol 2008) was 1.59 µM. The Kd (protein NCK2, ref Jones et al. 2006 / Kaushansky et al. Mol Biosys 2008 / Kaushansky et al. Chem and Biol 2008) was 0.38 µM, the Kd (protein PIK3R1-N, ref Jones et al. 2006 / Kaushansky et al. Mol Biosys 2008 / Kaushansky et al. Chem and Biol 2008) was 0.4 µM and the Kd [5] was 0.55 µM. The Kd (protein PIK3R2-N, ref Jones et al. 2006 / Kaushansky et al. Mol Biosys 2008 / Kaushansky et al. Chem and Biol 2008) was 0.39 µM, the Kd (protein PIK3R2-NC, ref Jones et al. 2006 / Kaushansky et al. Mol Biosys 2008 / Kaushansky et al. Chem and Biol 2008) was 0.32 µM and the Kd [6] was 0.85 µM. The Kd (protein PLCG2-N, ref Jones et al. 2006 / Kaushansky et al. Mol Biosys 2008 / Kaushansky et al. Chem and Biol 2008) was 0.84 µM, the Kd (protein PLCG2-NC, ref Jones et al. 2006 / Kaushansky et al. Mol Biosys 2008 / Kaushansky et al. Chem and Biol 2008) was 0.67 µM and the Kd [7] was 1.14 µM. The Kd [8] was 1.17 µM, the Kd [9] was 1.6 µM and the Kd [10] was 1.82 µM. The Kd [11] was 1.91 µM, the Kd (protein SHB, ref Jones et al. 2006 / Kaushansky et al. Mol Biosys 2008 / Kaushansky et al. Chem and Biol 2008) was 1.79 µM and the Kd [12] was 0.04 µM. For the same substance, the Kd [13] was 1.31 µM, the Kd [14] was 2 µM and the Kd [15] was 0.47 µM. The Kd (protein SUPT6H, ref Jones et al. 2006 / Kaushansky et al. Mol Biosys 2008 / Kaushansky et al. Chem and Biol 2008) was 1.03 µM, the Kd (protein SYK-C, ref Jones et al. 2006 / Kaushansky et al. Mol Biosys 2008 / Kaushansky et al. Chem and Biol 2008) was 0.87 µM and the Kd [16] was 1.28 µM. For the same substance, the Kd (protein TNS3, ref Jones et al. 2006 / Kaushansky et al. Mol Biosys 2008 / Kaushansky et al. Chem and Biol 2008) was 0.74 µM, the Kd [17] was 0.33 µM and the Kd (protein VAV2, ref Jones et al. 2006 / Kaushansky et al. Mol Biosys 2008 / Kaushansky et al. Chem and Biol 2008) was 0.22 µM. The Kd (protein VAV3, ref Jones et al. 2006 / Kaushansky et al. Mol Biosys 2008 / Kaushansky et al. Chem and Biol 2008) was 2 µM and the Kd [18] was 0.1 µM.
For “DNPDpYWHSRLFPd [ErbB3 pY1328, N-terminally rhodamine-labeled 13-mer phosphopeptide]”, the Kd [19] is listed as 0.6 µM, the Kd (protein HSH2D, ref Jones et al. 2006 / Kaushansky et al. Chem and Biol 2008) is listed as 1.7 µM and the Kd (protein MATK, ref Jones et al. 2006 / Kaushansky et al. Chem and Biol 2008) is listed as 1.87 µM. For the same substance, the Kd (protein NCK2, ref Jones et al. 2006 / Kaushansky et al. Chem and Biol 2008) was 1.9 µM, the Kd (protein RASA1-NC, ref Jones et al. 2006 / Kaushansky et al. Chem and Biol 2008) was 1.92 µM and the Kd [20] was 0.22 µM. For the same substance, the Kd (protein SYK-NC, ref Jones et al. 2006 / Kaushansky et al. Chem and Biol 2008) was 1.98 µM, the Kd (protein TENC1, ref Jones et al. 2006 / Kaushansky et al. Chem and Biol 2008) was 1.25 µM and the Kd (protein TNS4, ref Jones et al. 2006 / Kaushansky et al. Chem and Biol 2008) was 0.85 µM.
In the case of “DNPDpYWNHSLPPd [ErbB4 pY1242, N-terminally rhodamine-labeled 13-mer phosphopeptide]”, the Kd (protein ABL2, ref Kaushansky et al. Chem and Biol 2008) is listed as 0.034 µM and the Kd (protein SHC1-PTB, ref Kaushansky et al. Chem and Biol 2008) is listed as 0.51 µM.
In the case of “DNPEpYHNASNGPd [ErbB4 pY1188, N-terminally rhodamine-labeled 13-mer phosphopeptide]”, the Kd (protein ABL1, all original PM interactions, ref Jones et al. 2006 / Kaushansky et al. Chem and Biol 2008) is listed as 1.82 µM, the Kd (protein ABL2, all original PM interactions, ref Jones et al. 2006 / Kaushansky et al. Chem and Biol 2008) is listed as 0.76 µM and the Kd [19] is listed as 0.035 µM. The Kd (protein NCK2, all original PM interactions, ref Jones et al. 2006 / Kaushansky et al. Chem and Biol 2008) was 2 µM, the Kd (protein PIK3R3-NC, all original PM interactions, ref Jones et al. 2006 / Kaushansky et al. Chem and Biol 2008) was 2 µM and the Kd (protein SHC1-PTB, all original PM interactions, ref Jones et al. 2006 / Kaushansky et al. Chem and Biol 2008) was 0.28 µM. For the same substance, the Kd [20] was 0.72 µM.
In the case of “DSNFpYRALMDEEd [ErbB1 pY998, N-terminally rhodamine-labeled 13-mer phosphopeptide]”, the Kd [1] is listed as 2 µM, the Kd [2] is listed as 0.19 µM and the Kd (protein FES, ref Jones et al. 2006 / Kaushansky et al. Mol Biosys 2008 / Kaushansky et al. Chem and Biol 2008) is listed as 1.23 µM. The Kd [3] was 2 µM, the Kd [4] was 0.28 µM and the Kd (protein LCK, ref Jones et al. 2006 / Kaushansky et al. Mol Biosys 2008 / Kaushansky et al. Chem and Biol 2008) was 2 µM. The Kd [5] was 0.24 µM, the Kd [6] was 0.97 µM and the Kd (protein PTPN6-NC, ref Jones et al. 2006 / Kaushansky et al. Mol Biosys 2008 / Kaushansky et al. Chem and Biol 2008) was 2 µM. The Kd [7] was 1.06 µM, the Kd [8] was 1.38 µM and the Kd [9] was 1.36 µM. The Kd [10] was 2 µM, the Kd (protein SH2D2A, ref Jones et al. 2006 / Kaushansky et al. Mol Biosys 2008 / Kaushansky et al. Chem and Biol 2008) was 2 µM and the Kd [11] was 2 µM. The Kd [12] was 1.15 µM, the Kd [13] was 0.98 µM and the Kd [14] was 1.6 µM. The Kd (protein SOCS1, ref Jones et al. 2006 / Kaushansky et al. Mol Biosys 2008 / Kaushansky et al. Chem and Biol 2008) was 2 µM, the Kd (protein SOCS2, ref Jones et al. 2006 / Kaushansky et al. Mol Biosys 2008 / Kaushansky et al. Chem and Biol 2008) was 2 µM and the Kd [15] was 1.14 µM. The Kd [16] was 0.91 µM, the Kd [17] was 2 µM and the Kd [18] was 0.72 µM. The Kd (protein ZAP70-NC, ref Jones et al. 2006 / Kaushansky et al. Mol Biosys 2008 / Kaushansky et al. Chem and Biol 2008) was 1.65 µM.
For “EDYEpYMNRQRDGd [ErbB3 pY1262, N-terminally rhodamine-labeled 13-mer phosphopeptide]”, the Kd (Protein PIK3R3-NC, original PM interactions, ref Jones et al. 2006 / Kaushansky et al. Chem and Biol 2008) is given as 2 µM, the Kd (Protein PLCG2-NC, original PM interactions, ref Jones et al. 2006 / Kaushansky et al. Chem and Biol 2008) is given as 2 µM and the Kd (Protein RASA1-NC, original PM interactions, ref Jones et al. 2006 / Kaushansky et al. Chem and Biol 2008) is given as 2 µM. For the same substance, the Kd (Protein SLA, original PM interactions, ref Jones et al. 2006 / Kaushansky et al. Chem and Biol 2008) was 2 µM, the Kd (Protein SOCS5, original PM interactions, ref Jones et al. 2006 / Kaushansky et al. Chem and Biol 2008) was 2 µM and the Kd [19] was 1.96 µM. For the same substance, the Kd (protein RASA1-N, ref Jones et al. 2006 / Kaushansky et al. Chem and Biol 2008) was 1.21 µM.
For “EEKEpYHAEGGKVd [ErbB1 pY869, N-terminally rhodamine-labeled 13-mer phosphopeptide]”, the Kd [1] is listed as 2 µM and the Kd [2] is listed as 1.71 µM.
